Results: patent EP4417602A1, “SUBSTITUTED PYRAZOLE CARBOXAMIDES, SALTS THEREOF AND THEIR USE AS HERBICIDALLY ACTIVE SUBSTANCES” (Bayer AG, priority 2023, dated 2024)
Values belong to the compound of their own block, whether it stands above or below them.

Tests used:
[1] = tested on: ABUTH; test: B. Herbicidal post-emergence action on harmful plants (Tables B); assay type: in vivo, Abutilon theophrasti
Procedure, shortened: (§1)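 Activity was scored visually as % damage (100% = dead, 0% = like untreated) about 3 weeks after treatment. Plants at the one-leaf stage, 2-3 weeks old, were sprayed with WP/EC formulations plus 0.5% additive (600 L/ha water, up to 1280 g/ha). Plants were grown in sandy loam in a greenhouse.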

[2] = tested on: AMARE; test: as above; assay type: in vivo, Amaranthus retroflexus; conditions: application rate 1280 g/ha; Table B8
Procedure, shortened: as §1

[3] = tested on: VERPE; test: A. Herbicidal pre-emergence action on harmful plants (Tables A); assay type: in vivo, Veronica persica; conditions: application rate 1280 g/ha; Table A11
Procedure, shortened: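 Greenhouse pre-emergence test: compound applied to the soil surface at 1280 g/ha or below, and herbicidal effect rated visually at ca. 3 weeks on a 0–100% scale against untreated plants.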

[4] = tested on: ORYZA; test: D. Pre-emergence effects on crop plants (Tables D); assay type: in vivo, Oryza sativa; conditions: crop plant
Excerpt: Seeds of mono- and dicotyledonous weed plants and crop plants were sown, in plastic or organic planting pots, in sandy loam and covered with soil. The compounds according to the invention, formulated in the form of wettable powders (WP) or as emulsifiable concentrates (EC), were applied to the surface of the covering soil as aqueous suspension or emulsion, with the addition of 0.5% of an additive, at an application rate of 6001 of water/ha (converted).
Following treatment, the pots were placed in a greenhouse and kept under optimum growth conditions for the test plants. The visual grading of the damage to the test plants was carried out after ca. 3 weeks in comparison to untreated controls (herbicidal effect in percent (%): 100% effect = plants have died off, 0% effect = as control plants).
Tables D1 to D5 below show the effects of various compounds of the general formula (I) according to Table 1 on various crop plants and an application rate corresponding to 320 g/ha or below obtained by the experimental procedure mentioned above in Biological Examples, Section C. Table D1a: pre-emergence activity at 320g/ha against ZEAMX in %

[5] = tested on: AMARE; test: C. Herbicidal pre-emergence action, weed and crop plants (Tables C); assay type: in vivo, Amaranthus retroflexus; conditions: application rate 320 g/ha; Table C3
Excerpt: (§2) Seeds of mono- and dicotyledonous weed plants and crop plants were sown, in plastic or organic planting pots, in sandy loam and covered with soil. The compounds according to the invention, formulated in the form of wettable powders (WP) or as emulsifiable concentrates (EC), were applied to the surface of the covering soil as aqueous suspension or emulsion, with the addition of 0.5% of an additive, at an application rate of 6001 of water/ha (converted). Following treatment, the pots were placed in a greenhouse and kept under optimum growth conditions for the test plants. The visual grading of the damage to the test plants was carried out after ca. 3 weeks in comparison to untreated controls (herbicidal effect in percent (%): 100% effect = plants have died off, 0% effect = as control plants). Tables C1 to C12 below show the effects of selected compounds of the general formula (I) according to table 1 on various harmful plants and an application rate corresponding to 320 g/ha or below obtained by the experimental procedure mentioned above. Table C1: pre-emergence activity at 320g/ha against KCHSC in %

[6] = tested on: SETVI; test: E. Herbicidal post-emergence action, weed and crop plants (Tables E); assay type: in vivo, Setaria viridis; conditions: application rate 320 g/ha, visual assessment after ca. 3 weeks
Excerpt: (§3) Seeds of mono- and dicotyledonous weed plants and crop plants were sown, in plastic or organic planting pots, in sandy loam, covered with soil and grown in a greenhouse under controlled growth conditions. 2 to 3 weeks after sowing, the test plants were sprayed in the single-leaf stage. The compounds according to the invention, formulated in form of wettable powders (WP) or as emulsifiable concentrates (EC), were sprayed onto the green plant parts as aqueous suspension or emulsion, with the addition of 0.5% of an additive, at an application rate of 6001 of water/ha (converted). The test plants were placed in the greenhouse for ca. 3 weeks under optimum growth conditions, and then the effect of the preparations was assessed visually in comparison with untreated controls (herbicidal effect in percent (%): 100% effect = plants have died off, 0% effect = as control plants). Tables E1 to E7 below show the effects of selected compounds of the general formula (I) according to table 1 on various harmful plants and an application rate corresponding to 320 g/ha or below obtained by the experimental procedure mentioned above. Table E1: post-emergence activity at 320g/ha against ALOMY in %

[7] = tested on: POLCO; test: C. Herbicidal pre-emergence action, weed and crop plants (Tables C); assay type: in vivo, Polygonum convolvulus; conditions: application rate 320 g/ha; Table C9
Excerpt: as §2

[8] = tested on: SETVI; test: B. Herbicidal post-emergence action on harmful plants (Tables B); assay type: in vivo, Setaria viridis; conditions: application rate 1280 g/ha; Table B5
Procedure, shortened: as §1

[9] = tested on: STEME; test: as above; assay type: in vivo, Stellaria media; conditions: application rate 1280 g/ha; Table B6
Procedure, shortened: as §1

[10] = tested on: MATIN; test: E. Herbicidal post-emergence action, weed and crop plants (Tables E); assay type: in vivo, Matricaria inodora; conditions: application rate 320 g/ha, visual assessment after ca. 3 weeks
Excerpt: as §3

[11] = tested on: MATIN; test: B. Herbicidal post-emergence action on harmful plants (Tables B); assay type: in vivo, Matricaria inodora; conditions: application rate 1280 g/ha; Table B4a
Procedure, shortened: as §1

[12] = application rate 320 g/ha, treated at the one-leaf stage, rated visually after about 3 weeks vs untreated controls, 100% = the plants have died, 0% = like control plants
[13] = application rate 1280 g/ha, Table B1a
[14] = application rate 80 g/ha, Table D3b
[15] = application rate 320 g/ha, Table D3a

pre-emergence activity against ORYZA [4, 14]: 0%
pre-emergence activity against ORYZA [4, 15]: 0%
Compound: Cn1cc(C(=O)N2CCCC2Cc2ccccc2F)c(COc2ccccc2)n1 (racemic) [Example I-006]
post-emergence activity against ABUTH [1, 12]: 90%
post-emergence activity against ABUTH [1, 13]: 90%
post-emergence activity against AMARE [2]: 90%
pre-emergence activity against VERPE [3]: 100%

Compound: COCc1nn(C)cc1C(=O)N1CCCC1Cc1ccccc1F (single isomer, unassigned) [Example I-003]
post-emergence activity against ABUTH [1, 12]: 90%
post-emergence activity against ABUTH [1, 13]: 90%
pre-emergence activity against AMARE [5]: 90%
post-emergence activity against SETVI in % [6]: 80%

Compound: COCc1nn(C)cc1C(=O)N1CCCC1Cc1ccccc1F (racemic) [Example I-002]
post-emergence activity against AMARE [2]: 90%

Compound: C=C(c1ccccc1F)C1CCCN1C(=O)c1cn(C)nc1COC (racemic) [Example I-023]
pre-emergence activity against POLCO [7]: 80%

Compound: COCc1nn(C)cc1C(=O)N1CCCC1C(O)c1ccccc1F (single isomer, unassigned) [Example I-053]
pre-emergence activity against AMARE [5]: 90%
post-emergence activity against SETVI in % [6]: 80%
post-emergence activity against SETVI [8]: 90%

Compound: CNC(=O)n1cc(C(=O)N2CCCC2Cc2ccccc2F)c(COC)n1 (racemic) [Example I-051]
post-emergence activity against STEME [9]: 90%

Compound: COCc1c(C(=O)N2CCCC2Cc2ccccc2F)cnn1C (single isomer, unassigned) [Example I-157]
post-emergence activity against STEME [9]: 100%
pre-emergence activity against VERPE [3]: 90%

pre-emergence activity against ORYZA [4, 14]: 0%
pre-emergence activity against ORYZA [4, 15]: 0%
Compound: Cn1cc(C(=O)N2CCCC2Cc2ccc(F)cc2F)c(COc2ccccc2)n1 (racemic) [Example I-008]

Compound: COCc1c(C(=O)N2CCCC2Cc2ccccc2Cl)cnn1C (racemic) [Example I-170]
post-emergence activity against MATIN in % [10]: 80%
post-emergence activity against SETVI [8]: 90%
post-emergence activity against MATIN [11]: 90%
